The results in this text go back to patent publication US4356167A, “Liposome drug delivery systems” (Sandoz, Inc., priority 1981, dated 1982).

In this test the test system is blood glucose. Nature of the test: Blood glucose levels in mice after oral or i.m. dosing of insulin liposomes (Example 2). Type of test: in vivo. Conditions: 10μ/kg. As for the experimental part:
Insulin concentration of the liposomes was 11.69%. Suspensions of the liposome compositions A and B were given orally to mice at concentrations of A-50 U/0.1 ml/10 gms. of body weight; and B-25 U/0.1 ml/10 gms of body weight. A control group received 0.5% carboxymethyl cellulose concurrently.
Composition A was diluted 1:10 for injection i.m. as a control.
After two and four hours the animals were sacrificed by anesthetizing with 85 mg/kg of sodium hexobarbital i.p. and collecting blood via cardiac puncture. The collected blood was placed in an Auto Analyzer Cup containing 0.025 cc. of heparin 1000 units/ml. The blood samples were capped, shaken, and kept in an ice bucket. Glucose was determined by the Auto Analyzer potassium ferriccyanide method No. N-2b.
Carboxymethyl cellulose given either by p.o. or i.m. route has the same effect on blood glucose. Therefore, the test materials whether given p.o. or i.m. can be related to the carboxymethyl cellulose control.

Where “and” joins values, the source holds several entries; their conditions need not be identical. Equal entries are not always repeated.

For the substance “Bovine Pancreatic Insulin: Bovine pancreatic insulin, Sigma Chemical”, under “2 hrs”, the “% Δ blood glucose 2 Hrs. Post (down arrow, decrease vs control)” value is reported as 82%; the “Blood glucose levels 2 Hrs. Post, individual animals” value was 14 MG/100 ml and 12 MG/100 ml and 16 MG/100 ml; the “Blood glucose levels 2 Hrs. Post, mean” value amounted to 14.0 ± 8 MG/100 ml. Moreover, for the setting “4 hrs”, the “% Δ blood glucose 4 Hrs. Post (down arrow, decrease vs control)” value came to 75%; the “Blood glucose levels 4 Hrs. Post, individual animals” value was 37 MG/100 ml and 10 MG/100 ml and 27 MG/100 ml and 31 MG/100 ml; the “Blood glucose levels 4 Hrs. Post, mean” value was found to be 26.3 MG/100 ml.
